Reference: US20230337677A1, “ARYL AND PYRIDYL AMIDE PESTICIDES AND COMPOSITIONS THEREOF” (University of Florida Research Foundation, Incorporated, priority 2019, published 2023)
Where a name gives a salt, the structure may show the parent alone.

Tested on: Aedes aegypti mosquitoes, insecticide-susceptible Orlando strain
Assay: not given
Format: in vivo
Settings: 1 h; (OR)
Method: The tubes as shown were held horizontally on the bench.
For assessing behavioral repellency (FIG. 1), Aedes aegypti mosquitoes were used from the insecticide-susceptible Orlando strain and the pyrethroid-resistant Puerto Rico strain. Sixteen female mosquitoes were transferred to a glass tube (12.5 cm long, 2.5 cm outer diameter) with the ends covered with netting. Each compound was dissolved in 1 mL of acetone and serial dilutions ranging from 30-0.01 μg/ml were made. Circular filter papers (5 cm^2) were saturated with 50 μL of each concentration and allowed 10 min for solvent evaporation. The filter papers were then placed in clear conical polypropylene caps and fixed to the end of the glass tubes. The netting prevented mosquito contact with the filter paper. The tubes were then aligned with a mark denoting the midline and the proportion of mosquitoes on the chemically treated side was scored for up to 60 min. At the end of the test, the tube was placed in a cage and the ability of the mosquitoes to fly out of the tube was assessed for 30 min. […] This post-test evaluated whether any non-responding mosquitoes (not repelled) resulted from intoxication or disorientation from the test chemical. For assessment of lethality, insects were held for 24 hr under constant exposure in glass tubes having treated filter papers.
Compounds were first screened at 100 μg/cm^2 for repellency and 24 h mortality.

Question: How did the “1 h Repellency EC50, μg/cm^2” value turn out when `C=CC(=O)Nc1ccccc1C(F)(F)F` [GMR021] was run?
Answer: The value was 32 μg/cm^2.

Question: With `CCC(=O)Nc1ccccc1OC(F)(F)F` [GMR170] as the molecule, how does the “1 h Repellency EC50, μg/cm^2” value read?
Answer: The value was 15 μg/cm^2.

Question: How did the “1 h Repellency EC50, μg/cm^2” value turn out when `CCCC(=O)Nc1ccccc1OC(F)(F)F` [GMR171] was run?
Answer: Its value is 29 μg/cm^2.

Question: For `COC(=O)c1cc(F)c(F)cc1N` [MTFI-5-12A], which “1 h Repellency EC50, μg/cm^2” value is on record?
Answer: The value was 23 μg/cm^2.

Same assay, conditions: alone

Question: With `CC1(C)C(C=C(Cl)Cl)C1C(=O)O` (stereo not drawn) [TFA, 1R-transfluthrin acid, reference compound] as the molecule, how does the “repellency of TFA alone” value read?
Answer: Its value is “inactive alone”.

Same assay, conditions: in vivo

Question: `CCCCOC(=O)c1ccccc1O` [MTFI-5-14C] was tested. Which “knockdown in 1 hr repellency test (XXkd = number of insects incapacitated out of 16 females)” value did it give?
Answer: Its value is 8.

Same assay, conditions: screened at 100 μg/cm^2; 1 h; strain not given

Question: With `C=CC(=O)Nc1ccccc1C(F)(F)F` [GMR021] as the molecule, how does the “1 h % Repellency, 100 μg/cm^2” value read?
Answer: The value was 92%.

Question: With `CCCC(=O)Nc1cccc(OC(F)(F)F)c1` [GMR162] as the molecule, how does the “1 h % Repellency, 100 μg/cm^2” value read?
Answer: The value was 50%.

Question: With `CCCC(=O)N(C(=O)CCC)c1cccc(OC(F)(F)F)c1` [GMR163] as the molecule, how does the “1 h % Repellency, 100 μg/cm^2” value read?
Answer: Its value is 50%.

Question: `CCCCCC(=O)N(C(=O)CCCCC)c1cccc(OC(F)(F)F)c1` [GMR165] was tested. Which “1 h % Repellency, 100 μg/cm^2” value did it give?
Answer: The value was 62%.

Question: With `CC(=O)N(C(C)=O)c1ccccc1OC(F)(F)F` [GMR169] as the molecule, how does the “1 h % Repellency, 100 μg/cm^2” value read?
Answer: The value was 82%.

Question: Which “1 h % Repellency, 100 μg/cm^2” value does the source give for `CCC(=O)Nc1ccccc1OC(F)(F)F` [GMR170] here?
Answer: The value was 94%.

Question: `CCCC(=O)Nc1ccccc1OC(F)(F)F` [GMR171] was tested. Which “1 h % Repellency, 100 μg/cm^2” value did it give?
Answer: Its value is 100%.

Question: `O=C(NCC(F)(F)F)c1cc(F)c(F)c(F)c1` [GMR173] was tested. Which “1 h % Repellency, 100 μg/cm^2” value did it give?
Answer: The value was 44%.

Question: For `O=C(CSC(F)(F)F)Nc1cc(F)c(F)c(F)c1` [GMR177], which “1 h % Repellency, 100 μg/cm^2” value is on record?
Answer: Its value is 30%.

Question: How did the “1 h % Repellency, 100 μg/cm^2” value turn out when `CC1(C)[C@H](C=C(Cl)Cl)[C@H]1C(=O)Nc1cc(F)cc(F)c1` [GMR179] was run?
Answer: Its value is 30%.

Question: How did the “1 h % Repellency, 100 μg/cm^2” value turn out when `O=C(Nc1ccccc1C(F)(F)F)C(F)(F)F` [MTFI-1-4C] was run?
Answer: Its value is −6%.

Question: `O=C(CCl)Nc1cc(C(F)(F)F)cc(C(F)(F)F)c1` [MTFI-3-1F] was tested. Which “1 h % Repellency, 100 μg/cm^2” value did it give?
Answer: Its value is 88%.

Question: For `C=CCCCC(=O)Nc1ccccc1C(F)(F)F` [MTFI-3-2E], which “1 h % Repellency, 100 μg/cm^2” value is on record?
Answer: Its value is 76%.

Question: With `O=C(CCC1CCCCC1)Nc1cccc(C(F)(F)F)c1` [MTFI-3-3A] as the molecule, how does the “1 h % Repellency, 100 μg/cm^2” value read?
Answer: The value was 16%.

Question: With `CC(=O)Nc1ccc(C(F)(F)F)cc1` [MTFI-3-4A] as the molecule, how does the “1 h % Repellency, 100 μg/cm^2” value read?
Answer: The value was 8%.

Question: `O=C(CCC1CCCCC1)Nc1ccc(C(F)(F)F)cc1` [MTFI-3-4B] was tested. Which “1 h % Repellency, 100 μg/cm^2” value did it give?
Answer: The value was 8%.

Question: How did the “1 h % Repellency, 100 μg/cm^2” value turn out when `O=C(CCC1CCCCC1)Nc1c(Cl)cc(C(F)(F)F)cc1Cl` [MTFI-3-5A] was run?
Answer: Its value is 0%.

Question: With `O=C(Nc1cc(C(F)(F)F)cc(C(F)(F)F)c1)C(F)(F)C(F)(F)C(F)(F)F` [MTFI-4-2D] as the molecule, how does the “1 h % Repellency, 100 μg/cm^2” value read?
Answer: Its value is 12%.

Question: For `O=C(NCC(F)(F)F)Nc1c(Cl)cc(C(F)(F)F)cc1Cl` [MTFI-4-FPL-A], which “1 h % Repellency, 100 μg/cm^2” value is on record?
Answer: The value was 0%.

Question: For `O=C(Nc1ccc(C(F)(F)F)cc1)c1cc(Cl)cc(Cl)c1` [MTFI-4-NA-1C], which “1 h % Repellency, 100 μg/cm^2” value is on record?
Answer: The value was 8%.

Question: For `O=C(CCl)Nc1cccc(F)c1` [MTFI-5-1A], which “1 h % Repellency, 100 μg/cm^2” value is on record?
Answer: The value was 6%.

Question: `COC(=O)c1cc(F)c(F)cc1N` [MTFI-5-12A] was tested. Which “1 h % Repellency, 100 μg/cm^2” value did it give?
Answer: Its value is 92%.

Question: How did the “1 h % Repellency, 100 μg/cm^2” value turn out when `COC(=O)c1cc(C)c(C(F)(F)F)cc1N` [MTFI-5-12C] was run?
Answer: The value was 30%.

Question: How did the “1 h % Repellency, 100 μg/cm^2” value turn out when `COC(=O)c1cc(C(F)(F)F)ccc1N` [MTFI-5-12D] was run?
Answer: The value was 84%.

Question: For `COC(=O)c1ccccc1C(F)(F)F` [MTFI-5-13A], which “1 h % Repellency, 100 μg/cm^2” value is on record?
Answer: The value was 6%.

Same assay, conditions: structure-activity analysis of Table 2

Question: With `O=C(NCC(F)(F)F)c1cc(F)c(F)c(F)c1` [GMR173] as the molecule, how does the “vapor repellency / mortality, statement in words (Example 8)” value (“vapor repellency / mortality, statement” below) read?
Answer: Its value is “some repellency and mortality”.

Question: How did the “vapor repellency / mortality, statement” value turn out when `O=C(CSC(F)(F)F)Nc1cc(F)c(F)c(F)c1` [GMR177] was run?
Answer: Its value is “poor activity”.

Question: For `O=C(NCC(F)(F)F)Nc1c(Cl)cc(C(F)(F)F)cc1Cl` [MTFI-4-FPL-A], which “vapor repellency / mortality, statement” value is on record?
Answer: Its value is “reduced repellency”.

Question: With `O=C(Nc1ccc(C(F)(F)F)cc1)c1cc(Cl)cc(Cl)c1` [MTFI-4-NA-1C] as the molecule, how does the “vapor repellency / mortality, statement” value read?
Answer: The value was “poor results”.

Question: For `COC(=O)c1cc(F)c(F)cc1N` [MTFI-5-12A], which “vapor repellency / mortality, statement” value is on record?
Answer: The value was “moderate repellency in some instances”.

Question: Which “vapor repellency / mortality, statement” value does the source give for `COC(=O)c1cc(C)c(C(F)(F)F)cc1N` [MTFI-5-12C] here?
Answer: The value was “moderate repellency in some instances”.

Question: With `COC(=O)c1cc(C(F)(F)F)ccc1N` [MTFI-5-12D] as the molecule, how does the “vapor repellency / mortality, statement” value read?
Answer: Its value is “moderate repellency in some instances”.

Tested on: Anopheles gambiae G3 sensitive strain
Assay: Topical toxicity (24 hour mortality), An. gambiae G3
Format: in vivo
Settings: topical application, 24 h mortality, female adults, susceptible strain G3
Method: (§1) The Aedes aegypti strains Orlando (sensitive) as well as the Puerto Rico (PR, resistant to permethrin) were used. The Anopheles gambiae (G3 sensitive strain, as well as Akron kdr (Akdr) strain, resistant to pyrethroids were also assessed. The larvae were provided by the USDA, Gainesville Fl, and raised in a pan with tap water maintained at 28° C. Larvae were fed a ground liver and yeast mixture, and pupae were placed in emergence cages. Adults were held at 28° C. and provided with cotton balls soaked in 10% sugar water for rearing and for all bioassays.
(§2) Female adults from 3 to 6 days were used for the experiments. The drug was dissolved in ethanol and then applied with a micro-applicator on the thorax, between the legs: 200 nL of drug per female mosquito, with different concentrations of the drug; 10 mosquitos were treated together per concentration per replicate, and put together in a small container with free access to sweet water. Mortality, i.e. no visible movement, was assessed 24 hours after treatment. Every compound was assessed on at least 3 different cohorts of mosquitoes, and the LD50 values and slopes were determined with Probit analysis, corrected with Abbott's formula.

Question: For `CCCC(=O)Nc1cccc(OC(F)(F)F)c1` [GMR162], which “An. gambiae G3 LD50” value is on record?
Answer: Its value is greater than 1000 ng/mg.

Question: How did the “An. gambiae G3 LD50” value turn out when `CCCC(=O)N(C(=O)CCC)c1cccc(OC(F)(F)F)c1` [GMR163] was run?
Answer: Its value is greater than 1000 ng/mg.

Question: For `CC(=O)N(C(C)=O)c1ccccc1OC(F)(F)F` [GMR169], which “An. gambiae G3 LD50” value is on record?
Answer: The value was greater than 1000 ng/mg.

Tested on: Aedes aegypti strain Orlando (sensitive)
Assay: Topical toxicity (24 hour mortality), Ae. aegypti Orlando
Format: in vivo
Settings: topical application, 24 h mortality, female adults, susceptible Orlando strain
Method: as §1, §2

Question: How did the “Ae. aegypti OR LD50” value turn out when `O=C(CSC(F)(F)F)Nc1cc(F)c(F)c(F)c1` [GMR177] was run?
Answer: The value was 220 ng/mg.

Tested on: Anopheles gambiae Akron kdr (Akdr) strain, resistant to pyrethroids
Assay: Topical toxicity (24 hour mortality), An. gambiae Akdr
Format: in vivo
Settings: topical application, 24 h mortality, female adults, pyrethroid-resistant Akdr strain
Method: as §1, §2

Question: For `CCCC(=O)Nc1cccc(OC(F)(F)F)c1` [GMR162], which “An. gambiae AKDR LD50” value is on record?
Answer: Its value is greater than 1000 ng/mg.

Question: Which “An. gambiae AKDR LD50” value does the source give for `CCCC(=O)N(C(=O)CCC)c1cccc(OC(F)(F)F)c1` [GMR163] here?
Answer: Its value is greater than 1000 ng/mg.

Question: With `CC(=O)N(C(C)=O)c1ccccc1OC(F)(F)F` [GMR169] as the molecule, how does the “An. gambiae AKDR LD50” value read?
Answer: The value was greater than 1000 ng/mg.
